This series can be described thus: Microsomal metabolic stability study. The format is in vitro ADME, SD rats. The note with it: 25 µM, RLM. The procedure:
RLM was prepared from SD rats from our lab, as previously reported. In vitro metabolic stability of PSTi8 was determined using RLM. The reaction milieu was prepared by adding 50 mM Tris buffer (pH 7.4), 40 mM MgCl2 pre-incubated at 37 °C along with RLM (0.5 mg/mL) and spiked at a concentration (5 µM) of PSTi8. The reaction was started with NADPH (1 mM) and without NADPH (negative control using Tris buffer). A total of 100 µL samples were collected at 0, 5, 15, 30, 45 and 60 min, and the reaction was quenched with liquid nitrogen. Samples were processed with the SPE procedure and analyzed using the LC-MS/MS method. Negative control was used to assess the peptide stability in the reaction milieu and the positive control (Testosterone, 25 µM) was incubated to obtain the microsomal activity.

Consider `C[C@]12CC[C@H]3[C@@H](CCC4=CC(=O)CC[C@@]43C)[C@@H]1CC[C@@H]2O` [testosterone, reference compound], for which the “half-life of positive control” value is recorded as “within the acceptable in-house limits”.

For the origin of these results see publication PMC8780964, “Evaluation of the Pharmacokinetics of the Pancreastatin Inhibitor PSTi8 Peptide in Rats: Integration of In Vitro and In Vivo Findings” (Molecules, 2022).
